Where “and” joins values, the source holds several entries; their conditions need not be identical. Identical values can stand only once. Inconclusive results and toxic doses are left out. Rule for the calls: active = survival T/C of 150% or more; inactive = T/C below 125% in these data.
Test system: P388 leukemia ip, CD2F1 mice, survival T/C
Assay: NCI In Vivo Anticancer Drug Screen. Data for tumor model P388 Leukemia (intraperitoneal) in CD2F1 (CDF1) mice
Conditions: endpoint: median survival time, higher = longer survival
In short: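 Mice carrying the transplanted tumor received test compound or vehicle. Survival was recorded in each group, and the value is the treated-group measurement divided by that of the vehicle-treated control group.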

[1] = dose: 50.0 mg/kg/injection, schedule: Q01DX009 (ip), vehicle: saline
[2] = dose: 25.0 mg/kg/injection, schedule: Q01DX009 (ip), vehicle: saline with Tween-80
[3] = dose: 50.0 mg/kg/injection, schedule: Q01DX009 (ip), vehicle: saline with Tween-80
[4] = dose: 100.0 mg/kg/injection, schedule: Q01DX009 (ip), vehicle: saline with Tween-80
[5] = dose: 200.0 mg/kg/injection, schedule: Q01DX009 (ip), vehicle: saline with Tween-80
[6] = dose: 60.0 mg/kg/injection, schedule: Q01DX005 (ip), vehicle: saline with Tween-80
[7] = dose: 120.0 mg/kg/injection, schedule: Q01DX005 (ip), vehicle: saline with Tween-80
[8] = dose: 50.0 mg/kg/injection, schedule: Q01DX005 (ip), vehicle: Klucel (hydroxypropylcellulose) (HPC)
[9] = dose: 100.0 mg/kg/injection, schedule: Q01DX005 (ip), vehicle: Klucel (hydroxypropylcellulose) (HPC)
[10] = dose: 50.0 mg/kg/injection, schedule: Q01DX005 (ip), vehicle: saline with Tween-80
[11] = dose: 100.0 mg/kg/injection, schedule: Q01DX005 (ip), vehicle: saline with Tween-80
[12] = dose: 100.0 mg/kg/injection, schedule: Q04DX003 (ip), vehicle: saline with Tween-80
[13] = dose: 200.0 mg/kg/injection, schedule: Q04DX003 (ip), vehicle: saline with Tween-80
[14] = dose: 200.0 mg/kg/injection, schedule: Q01DX005 (ip), vehicle: Klucel (hydroxypropylcellulose) (HPC)
[15] = dose: 200.0 mg/kg/injection, schedule: Q01DX005 (ip), vehicle: saline with Tween-80

Measured: T/C

NC(N)=NC(N)=Nc1ccc([As](=O)(O)O)c(O)c1
inactive: dose: 22.5 mg/kg/injection, schedule: Q01DX009 (ip), vehicle: saline 105 % of control | dose: 25.0 mg/kg/injection, schedule: Q01DX009 (ip), vehicle: saline sonified 118 % of control | dose: 33.0 mg/kg/injection, schedule: Q01DX009 (ip), vehicle: saline 104 % of control | dose: 45.0 mg/kg/injection, schedule: Q01DX009 (ip), vehicle: saline 104 % of control | dose: 50.0 mg/kg/injection, schedule: Q01DX009 (ip), vehicle: saline sonified 118 % of control | [1] 109 % of control | dose: 75.0 mg/kg/injection, schedule: Q01DX009 (ip), vehicle: saline 122 % of control | dose: 90.0 mg/kg/injection, schedule: Q01DX009 (ip), vehicle: saline 115 % of control | dose: 180.0 mg/kg/injection, schedule: Q01DX009 (ip), vehicle: saline 117 % of control | dose: 360.0 mg/kg/injection, schedule: Q01DX009 (ip), vehicle: saline 103 % of control

COc1cc2nc(C)n(C)c(=O)c2cc1OC
inactive: dose: 12.5 mg/kg/injection, schedule: Q01DX009 (ip), vehicle: saline with Tween-80 95 % of control | [2] 116 % of control | [3] 101 % of control

CCOCC1COc2c(cc3[nH]cc(C(=O)O)c(=O)c3c2Cl)O1 (stereo not given)
inactive: [3] 95 % of control | [4] 93 % of control | [5] 95 % of control

Cc1ccc(-n2cnc3sc4c(c3c2=O)CCCC4)cc1
inactive: dose: 60.0 mg/kg/injection, schedule: Q01DX005 (ip), vehicle: Klucel (hydroxypropylcellulose) (HPC) 100 % of control | dose: 120.0 mg/kg/injection, schedule: Q01DX005 (ip), vehicle: Klucel (hydroxypropylcellulose) (HPC) 89 % of control | dose: 240.0 mg/kg/injection, schedule: Q01DX005 (ip), vehicle: Klucel (hydroxypropylcellulose) (HPC) 90 % of control

O=CC1N=C1c1ccccc1 (stereo not given)
inactive: dose: 100.0 mg/kg/injection, schedule: Q01DX001 (ip), vehicle: Klucel (hydroxypropylcellulose) (HPC) 88 % of control | dose: 200.0 mg/kg/injection, schedule: Q01DX001 (ip), vehicle: Klucel (hydroxypropylcellulose) (HPC) 90 % of control

CN=Nc1c(O)[nH]c2ccc(C)cc12
inactive: [6] 96 % of control | [7] 98 % of control | dose: 240.0 mg/kg/injection, schedule: Q01DX005 (ip), vehicle: saline with Tween-80 92 % of control

c1cc(NNc2cccc(-c3nn[nH]n3)c2)cc(-c2nn[nH]n2)c1
inactive: dose: 50.0 mg/kg/injection, schedule: Q01DX009 (ip), vehicle: Klucel (hydroxypropylcellulose) (HPC) 95 % of control | dose: 100.0 mg/kg/injection, schedule: Q01DX009 (ip), vehicle: Klucel (hydroxypropylcellulose) (HPC) 117 % of control | dose: 200.0 mg/kg/injection, schedule: Q01DX009 (ip), vehicle: Klucel (hydroxypropylcellulose) (HPC) 113 % of control

CCOC(=N)N1[C@@H]2CCCC[C@@H]21
inactive: dose: 100.0 mg/kg/injection, schedule: Q04DX002 (ip), vehicle: saline 101 % of control | dose: 200.0 mg/kg/injection, schedule: Q04DX002 (ip), vehicle: saline 109 % of control | dose: 400.0 mg/kg/injection, schedule: Q04DX002 (ip), vehicle: saline 120 % of control

CC1(C)C=Cc2cc(O)ccc2O1
inactive: [2] 99 % of control | [3] 90 % of control | [4] 88 % of control | [5] 86 % of control

C#CC(C)OC (stereo not given)
inactive: [1] 96 % of control | dose: 100.0 mg/kg/injection, schedule: Q01DX009 (ip), vehicle: saline 90 % of control | dose: 200.0 mg/kg/injection, schedule: Q01DX009 (ip), vehicle: saline 86 % of control

CCOC(=O)N(C)N(C)C(=O)OCC
inactive: dose: 50.0 mg/kg/injection, schedule: Q01DX005 (ip), vehicle: saline 100 % of control | dose: 100.0 mg/kg/injection, schedule: Q01DX005 (ip), vehicle: saline 100 % of control | dose: 200.0 mg/kg/injection, schedule: Q01DX005 (ip), vehicle: saline 100 % of control

COc1cc(C(=O)Oc2c(OC)cc(C(=O)c3cc4c(cc3C)OCO4)cc2OC)cc(OC)c1OC
inactive: [8] 88 % of control | [9] 88 % of control

O=c1c2ccccc2n(-c2ccccc2)c2ccc(Cl)cc12
inactive: [10] 86 % of control | [11] 90 % of control

[O-][N+]12CCCCC1C1CC(C2)C2CCCC(c3ccccc3)N2C1 (stereo not given)
inactive: dose: 12.5 mg/kg/injection, schedule: Q01DX009 (ip), vehicle: Klucel (hydroxypropylcellulose) (HPC) 101 % of control and 105 % of control and 116 % of control | dose: 25.0 mg/kg/injection, schedule: Q01DX009 (ip), vehicle: Klucel (hydroxypropylcellulose) (HPC) 103 % of control and 112 % of control and 114 % of control

Nc1ccccc1OCCCn1cc(-c2ccc(Cl)c(Cl)c2)c(N)nc1=O
inactive: dose: 7.5 mg/kg/injection, schedule: Q01DX005 (ip), vehicle: Klucel (hydroxypropylcellulose) (HPC) 103 % of control | dose: 15.0 mg/kg/injection, schedule: Q01DX005 (ip), vehicle: Klucel (hydroxypropylcellulose) (HPC) 96 % of control | dose: 30.0 mg/kg/injection, schedule: Q01DX005 (ip), vehicle: Klucel (hydroxypropylcellulose) (HPC) 93 % of control

Clc1ccc2[nH]c3nc4ccccc4nc3c2c1
inactive: [2] 100 % of control | [3] 105 % of control | [12] 90 % of control | [13] 100 % of control | dose: 400.0 mg/kg/injection, schedule: Q04DX003 (ip), vehicle: saline with Tween-80 104 % of control

COC(=O)C1=C(C(=O)OC)P2(C)(C)ON(c3ccccc3)C(C(=O)c3ccccc3)N2C1(c1ccccc1)c1ccccc1 (stereo not given)
inactive: [8] 100 % of control | [9] 93 % of control | [14] 98 % of control

CSCCC(NC(=O)C(Cc1c[nH]c2ccccc12)NC(=O)CCNC(=O)OC(C)(C)C)C(=O)NC(CC(=O)O)C(=O)NC(Cc1ccccc1)C(N)=O (stereo not given)
inactive: [8] 98 % of control | [9] 100 % of control | [14] 97 % of control

CNC(=S)N/N=C1/CCOC(C)/C1=N\NC(=S)NC (stereo not given)
inactive: [10] 93 % of control | [11] 95 % of control | [15] 92 % of control

CSc1ccc(SC)c2c1C(=O)c1c(SC)ccc(SC)c1C2=O
inactive: [3] 93 % of control | [4] 96 % of control

CC(CC(O)C(=O)O)CC(C)(C)C (stereo not given)
inactive: [10] 95 % of control | [11] 96 % of control | [15] 101 % of control

O=c1c(/C=C\Nc2ccccc2)c(-c2ccccc2)c1=O
inactive: dose: 100.0 mg/kg/injection, schedule: Q01DX001 (ip), vehicle: saline with Tween-80 100 % of control | dose: 200.0 mg/kg/injection, schedule: Q01DX001 (ip), vehicle: saline with Tween-80 92 % of control | dose: 400.0 mg/kg/injection, schedule: Q01DX001 (ip), vehicle: saline with Tween-80 92 % of control

COc1cc2c(cc1OC)C(Cc1ccccc1)=NCC2
inactive: [2] 100 % of control | [3] 95 % of control | [4] 90 % of control

COc1nc2[nH]c(C)cc(=O)c2c2ccccc12
inactive: [6] 98 % of control | [7] 98 % of control

c1ccc(-c2n[nH]c3ccccc23)cc1
inactive: dose: 25.0 mg/kg/injection, schedule: Q04DX003 (ip), vehicle: saline with Tween-80 101 % of control | dose: 50.0 mg/kg/injection, schedule: Q04DX003 (ip), vehicle: saline with Tween-80 110 % of control | [12] 101 % of control | [13] 99 % of control

Cc1c(C)[n+]([O-])c(-c2ccc(N(C)C)cc2)n1O
inactive: [3] 100 % of control | [4] 91 % of control | [5] 94 % of control

C=C(Br)C(=NC(C)(C)C)Nc1cccc(Cl)c1
inactive: [8] 102 % of control | [9] 107 % of control

— PubChem BioAssay AID330 (DTP/NCI, 2004)
